Experimental data as given in PubChem BioAssay (NCI).
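Briefly, cells in 96-well plates were exposed to five compound concentrations for 48 h, and endpoints were estimated by linear interpolation. Definition used: TGI = concentration required for complete inhibition of growth.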

How the values were obtained:
Assay in all cases: NCI tumour cell line growth inhibition, 48 h
786-0 renal = tested on: 786-0 renal
A498 renal = tested on: A498 renal
A549 NSCLC = tested on: A549 NSCLC
ACHN renal = tested on: ACHN renal
CAKI-1 renal = tested on: CAKI-1 renal
CCRF-CEM leukemia = tested on: CCRF-CEM leukemia
COLO 205 colon = tested on: COLO 205 colon
DLD-1 colon = tested on: DLD-1 colon
DMS 114 small cell lung = tested on: DMS 114 small cell lung
DMS 273 small cell lung = tested on: DMS 273 small cell lung
EKVX NSCLC = tested on: EKVX NSCLC
HCC-2998 colon = tested on: HCC-2998 colon
HCT-15 colon = tested on: HCT-15 colon
HL-60(TB) leukemia = tested on: HL-60(TB) leukemia
HOP-18 NSCLC = tested on: HOP-18 NSCLC
HOP-62 NSCLC = tested on: HOP-62 NSCLC
HOP-92 NSCLC = tested on: HOP-92 NSCLC
HT29 colon = tested on: HT29 colon
IGROV1 ovarian = tested on: IGROV1 ovarian
K-562 leukemia = tested on: K-562 leukemia
KM12 colon = tested on: KM12 colon
KM20L2 colon = tested on: KM20L2 colon
LOX IMVI melanoma = tested on: LOX IMVI melanoma
LXFL 529 NSCLC = tested on: LXFL 529 NSCLC
M14 melanoma = tested on: M14 melanoma
M19-MEL melanoma = tested on: M19-MEL melanoma
MALME-3M melanoma = tested on: MALME-3M melanoma
MOLT-4 leukemia = tested on: MOLT-4 leukemia
NCI-H226 lung = tested on: NCI-H226 lung
NCI-H23 lung = tested on: NCI-H23 lung
NCI-H460 lung = tested on: NCI-H460 lung
NCI-H522 lung = tested on: NCI-H522 lung
OVCAR-3 ovarian = tested on: OVCAR-3 ovarian
OVCAR-4 ovarian = tested on: OVCAR-4 ovarian
OVCAR-5 ovarian = tested on: OVCAR-5 ovarian
RPMI-8226 leukemia = tested on: RPMI-8226 leukemia
RXF-631 renal = tested on: RXF-631 renal
SF-268 CNS = tested on: SF-268 CNS
SF-295 CNS = tested on: SF-295 CNS
SF-539 CNS = tested on: SF-539 CNS
SK-MEL-2 melanoma = tested on: SK-MEL-2 melanoma
SK-MEL-28 melanoma = tested on: SK-MEL-28 melanoma
SK-MEL-5 melanoma = tested on: SK-MEL-5 melanoma
SK-OV-3 ovarian = tested on: SK-OV-3 ovarian
SNB-19 CNS = tested on: SNB-19 CNS
SNB-78 CNS = tested on: SNB-78 CNS
SW-620 colon = tested on: SW-620 colon
TK-10 renal = tested on: TK-10 renal
U251 CNS = tested on: U251 CNS
UACC-257 melanoma = tested on: UACC-257 melanoma
UACC-62 melanoma = tested on: UACC-62 melanoma
UO-31 renal = tested on: UO-31 renal
XF 498 CNS = tested on: XF 498 CNS

Measured: TGI

CC1=Nn2c(nnc2-c2ccc(N)cc2)NC(C)(C)C1
> 100 µM: all assays above
